Values after ≈ are worked out from the molar mass of the structure shown.
Key:
Hepatitis C virus [1] = assay: Antiviral activity against Hepatitis C virus genotype 1a infected in human HuH7 cells after 48 hrs by luciferase reporter gene assay; type: functional, organism-based, Hepacivirus hominis; settings: subtype 1a, Huh-7, 48 h
Hepatitis C virus [2] = assay: Antiviral activity against Hepatitis C virus genotype 1b infected in human HuH7 cells after 48 hrs by luciferase reporter gene assay; type: functional, organism-based, Hepacivirus hominis; settings: Huh-7, 48 h
[3] = target: T1, Voltage-gated inwardly rectifying potassium channel KCNH2 (Homo sapiens, UniProt Q12809); assay: Inhibition of human ERG expressed in CHO cells
T1 sequence (Q12809 whole entry): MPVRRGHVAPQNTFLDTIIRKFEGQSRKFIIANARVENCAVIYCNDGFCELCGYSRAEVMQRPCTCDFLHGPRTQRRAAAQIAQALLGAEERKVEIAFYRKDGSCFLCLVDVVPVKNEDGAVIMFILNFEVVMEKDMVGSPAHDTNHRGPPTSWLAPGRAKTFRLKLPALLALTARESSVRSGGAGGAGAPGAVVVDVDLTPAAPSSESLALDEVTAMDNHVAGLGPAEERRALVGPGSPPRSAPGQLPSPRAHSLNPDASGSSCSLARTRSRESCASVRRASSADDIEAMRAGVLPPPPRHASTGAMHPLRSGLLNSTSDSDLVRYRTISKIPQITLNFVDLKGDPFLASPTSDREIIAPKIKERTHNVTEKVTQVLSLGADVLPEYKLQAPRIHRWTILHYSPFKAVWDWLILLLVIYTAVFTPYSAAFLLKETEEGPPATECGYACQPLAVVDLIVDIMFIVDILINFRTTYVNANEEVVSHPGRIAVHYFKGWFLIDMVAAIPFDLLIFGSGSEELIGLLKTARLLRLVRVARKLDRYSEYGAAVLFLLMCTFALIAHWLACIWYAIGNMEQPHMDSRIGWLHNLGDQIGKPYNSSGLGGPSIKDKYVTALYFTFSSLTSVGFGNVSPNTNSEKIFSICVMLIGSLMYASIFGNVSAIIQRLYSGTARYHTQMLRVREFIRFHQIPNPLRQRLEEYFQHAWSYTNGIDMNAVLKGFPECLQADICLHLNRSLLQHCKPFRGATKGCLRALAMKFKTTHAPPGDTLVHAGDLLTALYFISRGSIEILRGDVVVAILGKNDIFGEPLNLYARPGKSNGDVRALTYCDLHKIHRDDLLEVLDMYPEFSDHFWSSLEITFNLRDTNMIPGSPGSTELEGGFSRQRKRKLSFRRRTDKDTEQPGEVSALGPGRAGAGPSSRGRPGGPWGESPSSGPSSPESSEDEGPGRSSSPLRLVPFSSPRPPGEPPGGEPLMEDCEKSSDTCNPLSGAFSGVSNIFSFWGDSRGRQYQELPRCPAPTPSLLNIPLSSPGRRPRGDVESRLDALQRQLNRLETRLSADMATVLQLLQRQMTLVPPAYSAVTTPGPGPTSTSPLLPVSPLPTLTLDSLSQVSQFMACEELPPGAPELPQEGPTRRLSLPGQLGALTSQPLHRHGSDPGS

[4] = AUC in CD rat at 1 mg/kg, po by LC/MS/MS analysis; type: ADME, organism-based; set-up: dose 1 mg/kg, route oral; settings: plasma
[5] = AUC in CD rat at 300 mg/kg by LC/MS/MS analysis; type: ADME, organism-based; set-up: dose 300 mg/kg; settings: plasma
[6] = AUC in CD rat at 5 mg/kg by LC/MS/MS analysis; type: ADME, organism-based; set-up: dose 5 mg/kg; settings: plasma
[7] = target: T1, Voltage-gated inwardly rectifying potassium channel KCNH2; assay: Inhibition of human ERG by patch-clamp technique
[8] = Intrinsic clearance in CD rat microsomes; type: ADME, Microsome
[9] = Half life in CD rat at 0.5 mg/kg, iv by LC/MS/MS analysis; type: ADME, organism-based; set-up: dose 0.5 mg/kg, route intravenous; settings: in vivo
[10] = Cmax in CD rat at 10 mg/kg by LC/MS/MS analysis; type: ADME, organism-based; set-up: dose 10 mg/kg; settings: in vivo
[11] = Clearance in CD rat at 0.5 mg/kg, iv by LC/MS/MS analysis; type: ADME, organism-based; set-up: dose 0.5 mg/kg, route intravenous; settings: in vivo
[12] = Volume of distribution in CD rat at 0.5 mg/kg, iv by LC/MS/MS analysis; type: ADME, organism-based; set-up: dose 0.5 mg/kg, route intravenous; settings: in vivo
[13] = Cmax in CD rat at 5 mg/kg by LC/MS/MS analysis; type: ADME, organism-based; set-up: dose 5 mg/kg; settings: in vivo
[14] = AUC in CD rat at 10 mg/kg by LC/MS/MS analysis; type: ADME, organism-based; set-up: dose 10 mg/kg; settings: plasma
[15] = AUC in CD rat at 100 mg/kg by LC/MS/MS analysis; type: ADME, organism-based; set-up: dose 100 mg/kg; settings: plasma
[16] = Cmax in CD rat at 100 mg/kg by LC/MS/MS analysis; type: ADME, organism-based; set-up: dose 100 mg/kg; settings: in vivo
[17] = Cmax in CD rat at 30 mg/kg by LC/MS/MS analysis; type: ADME, organism-based; set-up: dose 30 mg/kg; settings: in vivo
[18] = AUC in CD rat at 30 mg/kg by LC/MS/MS analysis; type: ADME, organism-based; set-up: dose 30 mg/kg; settings: plasma
[19] = Cmax in CD rat at 300 mg/kg by LC/MS/MS analysis; type: ADME, organism-based; set-up: dose 300 mg/kg; settings: in vivo
[20] = Oral bioavailability in CD rat at 1 mg/kg by LC/MS/MS analysis; type: ADME, organism-based; settings: in vivo
[21] = Solubility of the compound in neutral aqueous media at pH 6.8; type: physicochemical
[22] = Oral bioavailability in CD rat at 5 mg/kg by LC/MS/MS analysis; type: ADME, organism-based; settings: in vivo
[23] = Solubility of the compound in phosphate buffered saline at pH 7.4 after 1 hr by chemiluminescence nitrogen detection assay; type: physicochemical
[24] = Oral bioavailability in beagle dog at 5 mg/kg by LC/MS/MS analysis; type: ADME, organism-based, Canis lupus familiaris; settings: in vivo
[25] = AUC in CD rat at 1000 mg/kg by LC/MS/MS analysis; type: ADME, organism-based; set-up: dose 1000 mg/kg; settings: plasma
[26] = Stability of the compound in water at 1 uM at pH 2 up to 60 mins by LC/MS/MS analysis; type: physicochemical; settings: buffer, pH 2, 1 h
Hepatocyte = assay: Stability in rat hepatocytes at 0.5 uM by LC/MS/MS analysis; type: ADME, cell-based
[27] = Stability of the compound in blood (unknown origin) at 1 uM up to 60 mins by LC/MS/MS analysis; type: ADME, tissue-based; settings: 1 h
[28] = Stability of the compound in water at 1 uM at pH 7 up to 60 mins by LC/MS/MS analysis; type: physicochemical; settings: buffer, pH 7, 1 h
[29] = Stability in rat microsomes at 0.5 uM by LC/MS/MS analysis; type: ADME, Microsome

Structure (SMILES): CC(C)(c1cc(-c2ccc(C(F)(F)F)cc2C(F)(F)F)no1)n1cc2nc(-c3cccc(F)c3F)nc-2cn1
- EC50 (Hepatitis C virus [1]): 5400 nM
- EC50 (Hepatitis C virus [2]): 1500 nM

Structure (SMILES): Fc1ccccc1-c1nc2ccn(Cc3cc(-c4ccc(C(F)(F)F)cc4C(F)(F)F)no3)cc-2n1
- IC50 [3]: 794 nM

Structure (SMILES): FC(F)(F)c1ccc(-c2cc(Cn3cc4nc(-c5cccs5)nc-4cn3)on2)c(C(F)(F)F)c1
- EC50 (Hepatitis C virus [2]): 1750 nM

Structure (SMILES): CCCOc1cnc(-c2cc(Cn3cc4nc(-c5cccc(F)c5F)nc-4cn3)on2)cn1
- EC50 (Hepatitis C virus [1]): 1400 nM
- EC50 (Hepatitis C virus [2]): 220 nM

Structure (SMILES): Cc1ccc(-c2cc(Cn3cc4nc(-c5cccc(F)c5F)nc-4cn3)on2)cc1
- EC50 (Hepatitis C virus [1]): 110 nM
- EC50 (Hepatitis C virus [2]): 23 nM

Structure (SMILES): Fc1cccc(-c2nc3cnn(Cc4ccc(-c5ccc(C(F)(F)F)cc5C(F)(F)F)cc4)cc-3n2)c1F
- EC50 (Hepatitis C virus [1]): 120 nM
- EC50 (Hepatitis C virus [2]): 18 nM

Structure (SMILES): Fc1cccc(-c2nc3cnn(Cc4cc(-c5ccc(C(F)(F)F)cc5C(F)(F)F)no4)cc-3n2)c1
- EC50 (Hepatitis C virus [2]): > 50000 nM

Structure (SMILES): Fc1cccc(-c2nc3cnn(Cc4ccc(-c5ccc(C(F)(F)F)cc5C(F)(F)F)nc4)cc-3n2)c1F
- AUC [4]: 1500 ng·h/mL
- AUC [5]: 280000 ng·h/mL
- EC50 (Hepatitis C virus [1]): 160 nM
- AUC [6]: 8000 ng·h/mL
- EC50 [7]: 7940 nM
- CLint scaled [8]: 22 mL/min/kg
- half-life [9]: 3.14 h
- Cmax [10]: 2700 ng/mL
- clearance [11]: 9 mL/min/kg
- Vd [12]: 2.04 L/kg
- Cmax [13]: 1100 ng/mL
- AUC [14]: 24000 ng·h/mL
- AUC [15]: 69000 ng·h/mL
- EC50 (Hepatitis C virus [2]): 16 nM
- Cmax [16]: 7600 ng/mL
- Cmax [17]: 2800 ng/mL
- AUC [18]: 24000 ng·h/mL
- Cmax [19]: 27300 ng/mL
- bioavailability [20]: 78%
- solubility [21]: 9 µg/mL (≈ 16.8 µM)

Structure (SMILES): Fc1cccc(-c2nc3cnn(Cc4cc(-c5ccc(C(F)(F)F)cc5)no4)cc-3n2)c1F
- EC50 (Hepatitis C virus [1]): 70 nM
- EC50 (Hepatitis C virus [2]): 24 nM

Structure (SMILES): CCCOc1ccc(-c2cc(C(C(=O)OCCCO)n3cc4nc(-c5cccc(F)c5F)nc-4cn3)on2)c(C(F)(F)F)c1 (stereo unspecified)
- EC50 (Hepatitis C virus [1]): 23 nM
- bioavailability [22]: 91%
- solubility kinetic at 1 h [23]: 14 µM (≈ 8.65 µg/mL)
- bioavailability [24]: 63%
- EC50 (Hepatitis C virus [2]): 6 nM
- AUC [25]: 64000 ng·h/mL

Structure (SMILES): Fc1cccc(-c2nc3cnn(Cc4cn(-c5ccc(C(F)(F)F)cc5C(F)(F)F)cn4)cc-3n2)c1F
- EC50 (Hepatitis C virus [1]): > 50000 nM
- EC50 (Hepatitis C virus [2]): 7000 nM

Structure (SMILES): CC(c1cc(-c2ccc(C(F)(F)F)cc2C(F)(F)F)no1)n1cc2nc(-c3cccc(F)c3F)nc-2cn1 (racemic)
- EC50 (Hepatitis C virus [1]): 900 nM
- EC50 (Hepatitis C virus [2]): 80 nM

Structure (SMILES): Fc1cccc(-c2nc3cnn(Cc4cc(-c5ccc(C(F)(F)F)nc5)no4)cc-3n2)c1F
- EC50 (Hepatitis C virus [2]): 300 nM

Structure (SMILES): CCCOc1ccc(-c2cnc(Cn3cc4nc(-c5cccc(F)c5F)nc-4cn3)cn2)c(C(F)(F)F)c1
- EC50 (Hepatitis C virus [1]): 60 nM
- EC50 (Hepatitis C virus [2]): 30 nM

Structure (SMILES): CCCOc1ccc(-c2cc(Cn3cc4nc(-c5cccc(F)c5F)nc-4cn3)on2)c(C(F)(F)F)c1
- EC50 (Hepatitis C virus [1]): 21 nM
- bioavailability [22]: 33%
- Stability [26]: Stable
- Stability (Hepatocyte): Stable
- solubility kinetic at 1 h [23]: 1.6 µM (≈ 0.825 µg/mL)
- bioavailability [24]: 12%
- EC50 (Hepatitis C virus [2]): 3 nM
- Stability [27]: Stable
- Stability [28]: Stable
- Stability [29]: Stable

Reference: ChEMBL document CHEMBL3120081, “Imidazopyridazine hepatitis C virus polymerase inhibitors. Structure-activity relationship studies and the discovery of a novel, traceless prodrug mechanism” (J Med Chem, 2014)
